“Also recorded” adds a separate entry of the source. Read-outs that look alike come from different tables or passages of the source.
Key:
[1] = molecular target: T1, FGF14:Nav1.6 C-tail complex (Homo sapiens, UniProt Q92915+Q9UQD0); assay: Split-luciferase complementation assay (LCA) in Clone V double stable HEK293 cells; assay type: cell-based; conditions: for Split Luciferase Assay Z-score Set 1 / Split Luciferase Assay % Lum Set 1: biological replicate Set 1; for Split Luciferase Assay Z-score Set 1 / Split Luciferase Assay Z-score Set 2: normalized to on-plate 0.3% DMSO controls; for Split Luciferase Assay % Lum Set 1 / Split Luciferase Assay %Lum Set 2: normalized to on-plate 0.3% DMSO controls (n=16 per plate); for Split Luciferase Assay Z-score Set 2 / Split Luciferase Assay %Lum Set 2: biological replicate Set 2; for Split Luciferase Assay %Lum Avg: average of Set 1 and Set 2, normalized to 0.3% DMSO controls
T1 construct: polymerase chain reaction (PCR) amplification of the FGF14 open reading frame (nt 1–855); C-terminal fragment of Nav1.6 (amino acids 1763–1976) fused with CD4ΔC-tail (amino acids 1–395); expressed in transfected cells
T1 sequence (Q92915 1-252 isoform Q92915-2): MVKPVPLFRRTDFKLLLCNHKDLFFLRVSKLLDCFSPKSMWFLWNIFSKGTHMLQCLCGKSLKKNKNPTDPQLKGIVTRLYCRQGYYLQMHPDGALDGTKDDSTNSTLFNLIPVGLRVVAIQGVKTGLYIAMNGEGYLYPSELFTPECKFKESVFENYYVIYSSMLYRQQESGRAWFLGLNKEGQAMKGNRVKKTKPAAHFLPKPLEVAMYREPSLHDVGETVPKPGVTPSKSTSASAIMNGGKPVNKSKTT
T1 sequence (Q9UQD0 1763-1976 limits assumed): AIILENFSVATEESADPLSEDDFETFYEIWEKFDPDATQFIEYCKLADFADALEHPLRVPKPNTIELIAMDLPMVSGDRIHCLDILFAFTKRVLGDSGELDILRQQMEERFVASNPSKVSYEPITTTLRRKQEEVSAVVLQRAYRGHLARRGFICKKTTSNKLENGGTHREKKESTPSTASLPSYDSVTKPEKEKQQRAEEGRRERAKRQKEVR

[2] = molecular target: full-length P. pyralis luciferase (Photinus pyralis, UniProt P08659, K549A/L550V/N119G/N50D/S548I); assay type: cell-based
Chain of full-length P. pyralis luciferase (P08659 whole entry N50D/N119G/S548I/K549A/L550V, looked up): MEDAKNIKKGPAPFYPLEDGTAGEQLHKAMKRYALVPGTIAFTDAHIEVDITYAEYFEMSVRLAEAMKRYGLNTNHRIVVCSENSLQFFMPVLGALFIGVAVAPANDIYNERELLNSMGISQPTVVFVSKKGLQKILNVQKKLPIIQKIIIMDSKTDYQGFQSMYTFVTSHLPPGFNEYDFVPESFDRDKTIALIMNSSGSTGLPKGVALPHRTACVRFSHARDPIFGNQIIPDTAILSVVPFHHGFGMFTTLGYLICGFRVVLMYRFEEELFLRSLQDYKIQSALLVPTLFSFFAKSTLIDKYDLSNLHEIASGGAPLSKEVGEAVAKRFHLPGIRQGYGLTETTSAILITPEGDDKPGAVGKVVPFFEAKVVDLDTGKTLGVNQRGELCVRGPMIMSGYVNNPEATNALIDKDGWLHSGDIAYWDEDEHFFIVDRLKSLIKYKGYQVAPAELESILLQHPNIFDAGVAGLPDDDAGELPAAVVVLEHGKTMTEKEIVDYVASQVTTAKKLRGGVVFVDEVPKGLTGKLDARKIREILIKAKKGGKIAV

[3] = test system: Clone V cells
[4] = CC_NCI screening, normalized to on-plate 0.3% DMSO controls
[5] = CC_NCI screening, LCA luminescence
[6] = CC_NCI screening, full-length luciferase counter-screen luminescence, normalized to on-plate 0.3% DMSO controls
[7] = CC_NCI screening, full-length luciferase counter-screen, normalized to on-plate 0.3% DMSO controls

Row | Structure (SMILES) | Split Luciferase Assay % Lum Set 1 [1, 5] | Split Luciferase Assay %Lum Set 2 [1, 5] | Split Luciferase Assay Z-score Set 1 ([1]; CC_NCI screening, LCA) | Split Luciferase Assay Z-score Set 2 ([1]; CC_NCI screening, LCA) | Split Luciferase Assay %Lum Avg ([1]; CC_NCI screening) | Luciferase Assay % Lum [2, 6] | Luciferase Assay Z-score [2, 7] | Toxicity Assay % Fluor ([3]; human, 16 h, 30 µM) | Toxicity Assay Z-score ([3]; human, 16 h, 30 µM) | also measured
1 | NC(=O)c1ncn([C@@H]2O[C@H](CO)[C@@H](O)[C@H]2O)c1N [AICAR] |  |  |  |  |  |  |  |  |  | Split Luciferase Assay Z-score Set 1 ([1]; CC_NCI screening): 0.03; Split Luciferase Assay % Lum Set 1 ([1]; CC_NCI screening): 100.34%; Split Luciferase Assay Z-score Set 2 ([1]; CC_NCI screening): 0.84; Split Luciferase Assay %Lum Set 2 ([1]; CC_NCI screening): 110.27%; Split Luciferase Assay %Lum Avg [1]: 105.31%; Luciferase Assay % Lum (full-length luciferase counter-screen) [2, 4]: 107.04%; Luciferase Assay Z-score (full-length luciferase counter-screen) [2, 4]: 0.90; Toxicity Assay % Fluor (CTB cell viability fluorescence) [3]: 108.29%; Toxicity Assay Z-score (CTB cell viability) [3]: 1.16
2 | O=C1NC(=O)/C(=C/c2ccc(-c3ccc(F)cc3O)o2)S1 [AS 252424] |  |  |  |  |  |  |  |  |  | Split Luciferase Assay Z-score Set 1 ([1]; CC_NCI screening): -3.31; Split Luciferase Assay % Lum Set 1 ([1]; CC_NCI screening): 59.03%; Split Luciferase Assay Z-score Set 2 ([1]; CC_NCI screening): -4.84; Split Luciferase Assay %Lum Set 2 ([1]; CC_NCI screening): 40.57%; Split Luciferase Assay %Lum Avg [1]: 49.80%; Luciferase Assay % Lum (full-length luciferase counter-screen) [2, 4]: 69.90%; Luciferase Assay Z-score (full-length luciferase counter-screen) [2, 4]: -3.86; Toxicity Assay % Fluor (CTB cell viability fluorescence) [3]: 99.49%; Toxicity Assay Z-score (CTB cell viability) [3]: -0.07
3 | O=C1NC(=O)/C(=C/c2ccc3c(c2)OCO3)S1 [AS-041164] |  |  |  |  |  |  |  |  |  | Split Luciferase Assay Z-score Set 1 ([1]; CC_NCI screening): -1.38; Split Luciferase Assay % Lum Set 1 ([1]; CC_NCI screening): 82.95%; Split Luciferase Assay Z-score Set 2 ([1]; CC_NCI screening): 0.50; Split Luciferase Assay %Lum Set 2 ([1]; CC_NCI screening): 106.11%; Split Luciferase Assay %Lum Avg [1]: 94.53%; Luciferase Assay % Lum (full-length luciferase counter-screen) [2, 4]: 84.77%; Luciferase Assay Z-score (full-length luciferase counter-screen) [2, 4]: -1.95; Toxicity Assay % Fluor (CTB cell viability fluorescence) [3]: 113.38%; Toxicity Assay Z-score (CTB cell viability) [3]: 1.87
4 | O=C1NC(=O)/C(=C/c2ccc3c(c2)OC(F)(F)O3)S1 [AS-604850] |  |  |  |  |  |  |  |  |  | Split Luciferase Assay Z-score Set 1 ([1]; CC_NCI screening): -2.78; Split Luciferase Assay % Lum Set 1 ([1]; CC_NCI screening): 65.55%; Split Luciferase Assay Z-score Set 2 ([1]; CC_NCI screening): -1.96; Split Luciferase Assay %Lum Set 2 ([1]; CC_NCI screening): 75.94%; Split Luciferase Assay %Lum Avg [1]: 70.75%; Luciferase Assay % Lum (full-length luciferase counter-screen) [2, 4]: 62.77%; Luciferase Assay Z-score (full-length luciferase counter-screen) [2, 4]: -4.77; Toxicity Assay Z-score (CTB cell viability) [3]: 2.25
5 | CCN(CCO)CCCOc1ccc2c(Nc3cc(CC(=O)Nc4cccc(F)c4)[nH]n3)ncnc2c1 [AZD1152-HQPA] | 87.29% | 100.91% | -1.03 | 0.07 | 94.10% | 84.20% | -2.02 | 93.28% | -0.94 | 
6 | NCCCNCCSP(=O)(O)O [Amifostine] | 109.04% | 116.51% | 0.73 | 1.34 | 112.78% |  |  | 93.47% | -0.91 | Luciferase Assay % Lum [2]: 101.20%; Luciferase Assay Z-score [2]: 0.15
7 | CC(C)(C#N)c1cc(Cn2cncn2)cc(C(C)(C)C#N)c1 [Anastrozole] | 89.47% | 99.87% | -0.85 | -0.01 | 94.67% | 100.06% | 0.01 | 95.38% | -0.65 | 
8 | O=[As]O[As]=O (centres unmarked) [Arsenic trioxide] | 20.98% | 29.13% | -6.39 | -5.77 | 25.05% | 96.86% | -0.40 |  |  | Toxicity Assay % Fluor [3]: 84.44%; Toxicity Assay Z-score [3]: -2.18
9 | CNC(=O)c1ccccc1Sc1ccc2c(/C=C/c3ccccn3)n[nH]c2c1 [Axitinib] | 32.94% | 31.21% | -5.42 | -5.60 | 32.07% | 24.49% | -9.67 |  |  | Toxicity Assay % Fluor [3]: 91.66%; Toxicity Assay Z-score [3]: -1.17
10 | C=C(c1ccc(C(=O)O)cc1)c1cc2c(cc1C)C(C)(C)CCC2(C)C [BEXAROTENE] | 129.69% | 99.87% | 2.40 | -0.01 | 114.78% | 99.04% | -0.12 | 86.80% | -1.85 | 
11 | Cn1c(=O)n(-c2ccc(C(C)(C)C#N)cc2)c2c3cc(-c4cnc5ccccc5c4)ccc3ncc21 [BEZ 235] | 91.64% | 100.91% | -0.68 | 0.07 | 96.28% | 98.68% | -0.17 | 90.66% | -1.31 | 
12 | COC(=O)c1ccc2c(c1)NC(=O)/C2=C(\Nc1ccc(N(C)C(=O)CN2CCN(C)CC2)cc1)c1ccccc1 [BIBF-1120] | 119.91% | 123.80% | 1.61 | 1.94 | 121.85% | 102.06% | 0.26 | 89.46% | -1.47 | 
13 | COc1ccc(Cl)cc1[C@]1(F)C(=O)Nc2cc(C(F)(F)F)ccc21 [BMS 204352] | 10.11% | 17.69% | -7.26 | -6.70 | 13.90% | 36.55% | -8.12 | 103.30% | 0.46 | 
14 | Cc1cc(N2CCOCC2)cc2[nH]c(-c3c(NC[C@@H](O)c4cccc(Cl)c4)cc[nH]c3=O)nc12 [BMS-536924] | 56.86% | 40.57% | -3.49 | -4.84 | 48.71% | 93.73% | -0.80 |  |  | Toxicity Assay % Fluor [3]: 86.04%; Toxicity Assay Z-score [3]: -1.95
15 | CC(C)C[C@H](NC(=O)[C@H](Cc1ccccc1)NC(=O)c1cnccn1)B(O)O [BORTEZOMIB] | 55.77% | 84.27% | -3.57 | -1.28 | 70.02% | 88.79% | -1.44 | 89.20% | -1.51 | 
16 | NC(=O)c1ccc(I)c([N+](=O)[O-])c1 [BSI-201] | 102.51% | 112.35% | 0.20 | 1.01 | 107.43% | 101.73% | 0.22 | 93.94% | -0.85 | 
17 | O=C(Nc1cccc(Nc2ncc(Br)c(NCCc3cnc[nH]3)n2)c1)N1CCCC1 [BX 912, reference compound] | 35.11% | 40.57% | -5.24 | -4.84 | 37.84% | 85.82% | -1.82 |  |  | Z-score (LCA primary screening) ([1]; 30 µM, 384-well, average of primary screening (n = 2), vs on-plate 0.3% DMSO): −5.04; dose-response behavior of repurchased compounds ([1]; 10-point dose response 0.25-50 µM, Clone V cells): counter acting activity as a function of dosage; also recorded: act as enhancers at lower concentrations; IMin (% Luminescence) ([1]; antagonists, Clone V cells, 384-well, normalized to DMSO): 37.84 % Luminescence; action toward the FGF14:Nav1.6 C-tail interaction ([1]; dose-dependency validation using fresh compound samples): acted as antagonists; IC50 ([1]; estimated, 8-point dose response 0.25-30 µM, n = 4 per concentration, library compounds, read-out: IC50): 9.23 µM; IC50 ([1]; repurchased compounds, 10-point dose response 0.25-50 µM, n = 8 per concentration, Clone V cells, 384-well, read-out: in-cell IC50): 6.8 µM; Toxicity Assay % Fluor [3]: 106.22%; Toxicity Assay Z-score [3]: 0.87
18 | Cl.Cn1c(CCCC(=O)O)nc2cc(N(CCCl)CCCl)ccc21 [Bendamustine hydrochloride] | 111.21% | 127.96% | 0.91 | 2.27 | 119.58% | 101.61% | 0.21 |  |  | Toxicity Assay % Fluor [3]: 87.62%; Toxicity Assay Z-score [3]: -1.73
